Entries after “also recorded” stand apart in the source; their conditions may differ. Where two headings read alike, the source gives them in different places.
How the values were obtained:
H4 neuroglioma cell line = test: Viability (toxicity) assay, alamar Blue; type: cell-based; conditions: for effect on the viability of the cells at the lower doses: 9-ethylharmine 1 μM, harmine 0.8 μM; for IC50: read-out: IC50 for viability (toxicity)
[1] = test system: total tau and phosphorylated tau (12E8 pS262/pS356, pT231, pS396) in 4R0N tau overexpressing H4 neuroglioma cells; test: Cell culture tau assay (Western blot of total and phosphorylated tau); type: cell-based; conditions: for effects in the cell-based tau assay: FIG. 3; for phosphorylated forms of tau (12E8 pS262/pS356, pT231, pS396): H4-tau cells, 80 nM, 800 nM and 8 μM, 96 hours; for total tau and phosphorylated forms of tau: doses up to 500 μM
recombinant human DYRK1A = molecular target: T1, recombinant human DYRK1A (Homo sapiens, UniProt Q13627); type: biochemical; conditions: for IC50: recombinant DYRK1A and 4R2N tau, 1 mM ATP, read-out: IC50, inhibition of DYRK1A dependent tau phosphorylation at serine 396
T1 construct: purchased Invitrogen (DYRK1A); SignalChem (tau)

[2] = test system: spatial working memory and short-term memory retention; test: Delayed-match-to-sample asymmetrical 3-choice task; type: in vivo, rat
Source text: (§1) Twenty-six 17 month-old Fischer-344 male rats raised at the National Institute on Aging colony at Harlan Laboratories (Indianapolis, Ind.) were used in the study. After arrival, rats were pair-housed, had food and water ad-lib, and were maintained on a 12-h light/dark cycle. Procedures were approved by the Institutional Animal Care and Use Committee, and adhered to National Institutes of Health standards.
(§2) Rats were randomly divided into three treatment groups (n at start of study, m included in final behavioral analyses): vehicle (10, 10), low-Harmine 1 mg/kg (10, 10), or high-Harmine 5 mg/kg (10, 6). […]
Spatial working memory and short-term memory retention were evaluated using a win-stay water-escape DMS asymmetrical place-learning task. […] Entry into any non-platformed arm was counted as an error. An arm entry was counted when the tip of a rat's snout reached a mark on the outside of the arm (not visible from the inside of the maze; 11 cm into the arm).
In an initial analysis, Harmine-low and Harmine-high groups were compared. […] DMS data were analyzed with an omnibus ANOVA with treatment as the between groups variable and total number of errors for each trial as repeated measures. MM data were analyzed with an omnibus ANOVA with treatment as the between groups variable and swim distance (cm) to the platform as repeated measures. […]

spatial reference memory = test: Morris water maze; type: in vivo, rat; conditions: rats
Source text: as §1, §2
Spatial reference memory was evaluated using the Morris Maze. […] A video camera and tracking system tracked and measured each rat's swim pathway.
(§3) In an initial analysis, Harmine-low and Harmine-high groups were compared. […] DMS data were analyzed with an omnibus ANOVA with treatment as the between groups variable and total number of errors for each trial as repeated measures. MM data were analyzed with an omnibus ANOVA with treatment as the between groups variable and swim distance (cm) to the platform as repeated measures. […] Visible platform data were further analyzed using a regression analysis with testing squad (1-3) as the predictor and mean escape latency across trials 1-6 as the criterion. […]

[3] = test system: motor and visual competence; test: Visible platform task and observed motor side effects; type: in vivo, rat; conditions: rats
Source text: as §1
Rats were randomly divided into three treatment groups (n at start of study, m included in final behavioral analyses): vehicle (10, 10), low-Harmine 1 mg/kg (10, 10), or high-Harmine 5 mg/kg (10, 6). Nine days after arrival, animals started receiving daily subcutaneous injections at a volume of 1 ml/kg. […] Behavioral testing began after the second injection day, testing commenced approximately 30-45 minutes after injections and lasted for 6-8 hours. Animals were assigned semi-randomly to one of three testing squads of 10 animals each balanced with respect to treatment group.
Four days after MM testing, motor and visual competence were evaluated using the visible platform task. This was an adaptation of the cue-navigation version of the spatial MM task previously used to dissociate visual and motor acuity from place memory. This task was ideal due to its similarity to other spatial water-maze tasks with respect to motor and visual requirements, differing only in that animals are not required to associate the location of the platform with distal cues. […]
as §3

With `CCn1c2cc(OC)ccc2c2ccnc(C)c21` [9-ethyl harmine] as the compound, how does the “effect on the viability of the cells at the lower doses” value (H4 neuroglioma cell line) read?
Its value is “no detectable effect”.

What about the IC50 (H4 neuroglioma cell line) of the same compound?
Its IC50 is 9 µM.

And the “reducing total tau and phosphorylated tau levels” value ([1]; 1 μM)?
Its value is “significant reductions”.

And the “reducing total tau and phosphorylated tau levels” value ([1]; dose of 10 μM)?
Its value is “significant effects”.

And the IC50 (recombinant human DYRK1A)?
The IC50 was 0.4 µM.

For `COc1ccc2c3c([nH]c2c1)C(C)=NCC3` [harmaline], which IC50 (H4 neuroglioma cell line) is on record?
The IC50 was 56 µM.

What about the “effects in the cell-based tau assay” value [1] of the same compound?
The value was “relatively muted effects”.

What about the “affinity relative to harmine in the in vitro phosphorylation assay” value (recombinant human DYRK1A) of the same compound?
Its value is “more than an order of magnitude lower in affinity than harmine”.

Which results are given for `Cc1nccc2c1[nH]c1ccccc12` [harmane]?
IC50 (H4 neuroglioma cell line): 32 µM; effects in the cell-based tau assay [1]: relatively muted effects; affinity relative to harmine in the in vitro phosphorylation assay (recombinant human DYRK1A): more than an order of magnitude lower in affinity than harmine

For `COc1ccc2c(c1)[nH]c1c(C)nccc12` [harmine], which “effect on the viability of the cells at the lower doses” value (H4 neuroglioma cell line) is on record?
Its value is “no detectable effect”.

What about the IC50 (H4 neuroglioma cell line) of the same compound?
The IC50 was 12 µM.

And the “total errors on the DMS task, testing block 4 (Days 8-9), trials 2-6” value ([2]; 17 month-old Fischer-344 male rats, 1 and 5 mg/kg daily subcutaneous, groups combined, vs vehicle, P=0.03)?
The value was “enhanced working and short-term memory; also recorded: fewer total errors”.

What about the “DMS task, testing blocks 1, 2 or 3” value ([2]; rats, 1 and 5 mg/kg s.c. combined) of the same compound?
Its value is “no main effects”.

What about the “Morris maze distance swam to the platform, days 1-3” value (spatial reference memory; 1 and 5 mg/kg s.c.) of the same compound?
The value was “no Harmine treatment main effects”.

What about the “effect on spatial reference memory” value (spatial reference memory; doses tested 1 and 5 mg/kg s.c.) of the same compound?
The value was “no significant effect”.

And the “reducing total tau and phosphorylated tau levels” value ([1]; 0.8 μM)?
Its value is “significant reductions”.

And the “levels of total tau protein” value ([1]; 0.8 μM and 8 μM)?
The value was “reduce the levels of total tau protein”.

What about the “phosphorylated forms of tau (12E8 pS262/pS356, pT231, pS396)” value [1] of the same compound?
The value was “dose-dependent reduction”.

What about the “phosphorylated forms of tau (12E8 pS262/pS356, pT231, pS396)” value ([1]; listed as Harmine) of the same compound?
Its value is “reduced the expression of each phospho-tau species tested”.

What about the “reducing total tau and phosphorylated tau levels” value ([1]; dose of 10 μM) of the same compound?
Its value is “significant effects”.

What about the “decrease of mean escape latency with each squad tested (visible platform task)” value ([3]; Harmine-high 5 mg/kg s.c.) of the same compound?
Its value is “roughly 11.6 seconds”.

And the “duration of motor impairments after injections” value ([3]; Harmine-high 5 mg/kg s.c.)?
The value was 1 to 2 h.

What about the motoric effects ([3]; harmine treatment) of the same compound?
Its motoric effects is “obvious motoric effects”.

`O=C(NCCN1CCOCC1)c1ccc(Cl)cc1` [moclobemide, reference compound] was tested. Which “total tau and phosphorylated forms of tau” value [1] did it give?
Its value is “did not affect tau phosphorylation”.

And the “total tau and phosphorylated forms of tau” value ([1]; listed as Moclobemide)?
The value was “did not reduce levels”.

Which IC50 (H4 neuroglioma cell line) does the source give for `c1ccc2c(c1)[nH]c1cnccc12` [norharmane] here?
The IC50 was 95 µM.

What about the “effects in the cell-based tau assay” value [1] of the same compound?
The value was “relatively muted effects”.

What about the “affinity relative to harmine in the in vitro phosphorylation assay” value (recombinant human DYRK1A) of the same compound?
Its value is “more than an order of magnitude lower in affinity than harmine”.

Which IC50 (H4 neuroglioma cell line; H4 neuroglioma cell line, alamar Blue, fresh drug every 24 hours for 4 days) does the source give for harmol here?
The IC50 was 18 µM.

What about the “reducing total tau and phosphorylated tau levels” value ([1]; dose of 10 μM) of the same compound?
Its value is “significant effects”.

What about the IC50 (recombinant human DYRK1A) of the same compound?
Its IC50 is 0.09 µM.

— patent publication US20150216848A1, “COMPOUNDS THAT INHIBIT TAU PHOSPHORYLATION” (THE TRANSLATIONAL GENOMICS RESEARCH INSTITUTE, priority 2010, published 2015)
